From US7087420B1, “Microbial β-glucuronidase genes, gene products and uses thereof” (Cambia, priority 1997, dated 2006)

Key:
yeast colonies = experiment: Yeast colonies on X-GlcA expression plates containing tunicamycin; assay type: cell-based; conditions: tunicamycin 5, 10, and 20 μg/ml
Description: (§1) To determine whether the N-glycosylation site has a deleterious effect, on secretion, yeast colonies are streaked on expression plates containing X-GlcA and from 0.1 to 20 μg/ml of tunicamycin (to inhibit all N-glycosylation).

[1] = chromophore released from pNPG; cited from earlier work
yeast strain InvSc1 = experiment: Growth of transformed yeast colonies on expression plates with tunicamycin; conditions: tunicamycin 5, 10, and 20 μg/ml
Description: Yeast strain InvSc1 (mat α his3-Δ1 leu2 trp1-289 ura3-52) from Invitrogen (Carlsbad, Calif.) is transformed with the E. coli GUS and Staphylococcus GUS plasmids indicated in the table below. Transformants are plated on both selection media (minimal media supplemented with His, Leu, Trp, and 2% glucose as a carbon source to suppress the expression of the gene driven by the gal1 promoter) and expression media (media supplemented with His, Leu, Trp, 1% raffinose, 1% galactose as carbon source and with 50 μg/ml X-GlcA).
as §1

[2] = biological target: T1, E. coli β-glucuronidase (E. coli GUS, GUS^Eco), wild type, SEQ ID NO: 23 (Escherichia coli, UniProt P05804); conditions: background statement, no concentration; cited from earlier work
T1 construct: pNPG substrate; functional homotetramer
T1 sequence (P05804 whole entry): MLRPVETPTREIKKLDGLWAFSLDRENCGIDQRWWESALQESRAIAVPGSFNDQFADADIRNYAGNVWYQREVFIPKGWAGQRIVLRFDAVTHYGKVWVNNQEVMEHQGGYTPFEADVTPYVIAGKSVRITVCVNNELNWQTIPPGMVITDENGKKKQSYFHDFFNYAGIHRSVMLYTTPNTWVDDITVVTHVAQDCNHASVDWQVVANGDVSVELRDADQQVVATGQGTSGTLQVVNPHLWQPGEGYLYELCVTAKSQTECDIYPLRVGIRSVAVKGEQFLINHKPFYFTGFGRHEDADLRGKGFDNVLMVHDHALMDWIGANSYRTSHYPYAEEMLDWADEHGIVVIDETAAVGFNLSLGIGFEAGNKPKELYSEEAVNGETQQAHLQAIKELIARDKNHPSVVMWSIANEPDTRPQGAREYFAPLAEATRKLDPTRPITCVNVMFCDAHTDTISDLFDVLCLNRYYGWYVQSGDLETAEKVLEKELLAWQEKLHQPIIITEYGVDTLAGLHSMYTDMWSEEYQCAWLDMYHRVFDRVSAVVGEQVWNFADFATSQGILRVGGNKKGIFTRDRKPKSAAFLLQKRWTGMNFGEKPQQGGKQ

[3] = test system: Staphylococcus β-glucuronidase (GUS^Stp, Staph GUS), wild type, SEQ ID NO: 18 (DNA SEQ ID NO: 1); experiment: Inhibition of Staphylococcus GUS by end product glucuronic acid; assay type: biochemical
Description: GUS^Stp enzyme activity is also resistant to inhibition by detergents. Enzyme activity assays are measured in the presence of varying amounts of SDS, Triton® X-100, or sarcosyl. […] In SDS, the enzyme still had substantial activity (60–75% activity). In addition, GUS^Stp is not inhibited by the end product of the reaction. Activity is determined normally or in the presence of 1 or 10 mM glucuronic acid. No inhibition is seen at either 1 or 10 mM glucuronic acid (FIG. 11). The enzyme is also assayed in the presence of organic solvents, dimethylformamide (DMF) and dimethylsulfoxide (DMSO), and high concentrations of NaCl (FIG. 12).

Millin rice plants = conditions: MUG 1 mM in water
Description: Seeds of T0 plants, which are the primary transformed plants, from pTANG86.1/2/3/4/5/6 (see Table 7 below) transformed plants, seeds of pCAM1301 (E. coli GUS with N358-Q change to remove N-glycosylation signal sequence) transformed plants, or untransformed Millin rice seeds are germinated in water containing 1 mM MUG or 50 μg/mL X-GlcA with or without hygromycin (for nontransformed plants). Resulting plants are observed for any reduced growth due to the presence of MUG, X-GlcA.

[4] = test system: Staphylococcus β-glucuronidase (GUS^Stp, Staph GUS), wild type, SEQ ID NO: 18 (DNA SEQ ID NO: 1); experiment: Kinetics of pNPG hydrolysis by Staphylococcus GUS (spectrophotometric p-nitrophenol release); assay type: biochemical
Description: The thermal stability of GUS^Stp and E. coli GUS enzymes are determined at 65° C., using a substrate that can be measured by spectrophotometry, for example. One such substrate is p-nitrophenyl β-D-glucuronide (pNPG), which when cleaved by GUS releases the chromophore p-nitrophenol. At a pH greater than its pKa (approximately 7.15), the ionized chromophore absorbs light at 400–420 nm, therefore appears in the yellow range of visible light. Briefly, reactions are performed in 50 mM Na3PO4 pH 7.0, 10 mM 2-ME, 1 mM EDTA, 1 mM pNPG, and 0.1% Triton® X-100 at 37° C. The reactions are terminated by the addition of 0.4 ml of 2-amino-2-methylpropanediol, and absorbance measured at 415 nm against a substrate blank. Under these conditions, the molar extinction coefficient of p-nitrophenol is assumed to be 14,000: One unit is defined as the amount of enzyme that produces 1 nmole of product/min at 37° C.
Turnover number is calculated as nmoles of pNPG converted to p-nitrophenol per min per μg of purified protein.

rice seeds = experiment: Growth of rice plants germinated in water containing glucuronide substrate; assay type: in vivo; conditions: 50 μg/mL X-GlcA in germination water

tunicamycin [listing 1 of 2 here]
growth of yeast colonies (yeast colonies): do not grow

O=[N+]([O-])c1ccc(O)cc1 [p-nitrophenol]
pKa [1]: approximately 7.15

tunicamycin [listing 2 of 2 here]
Yeast colony growth (toxicity) (yeast strain InvSc1): do not grow

O=C(O)[C@H]1OC(O)[C@H](O)[C@@H](O)[C@@H]1O (stereo partly drawn) [glucuronic acid]
Inhibition by end product (glucuronic acid) [2]: inhibited
Inhibition by glucuronic acid ([3]; 1 mM glucuronic acid (FIG. 11)): No inhibition
Inhibition by glucuronic acid ([3]; 10 mM glucuronic acid (FIG. 11)): No inhibition
Inhibition by glucuronic acid (summary statement) ([3]; unlike E. coli GUS, FIG. 11): not substantially inhibited

Cc1cc(=O)oc2cc(O[C@@H]3O[C@H](C(=O)O)[C@@H](O)[C@H](O)[C@H]3O)ccc12 [MUG, 4-methylumbelliferyl β-D-glucuronide]
Effect on roots of rice plants (reduced growth) (Millin rice plants): somewhat stunted

O=C(O)[C@H]1O[C@@H](Oc2ccc([N+](=O)[O-])cc2)[C@H](O)[C@@H](O)[C@@H]1O [pNPG, p-nitrophenyl β-D-glucuronide]
Vmax relative to E. coli GUS ([4]; GUS^Stp vs E. coli GUS, 37° C.): about the same
Turnover number relative to E. coli GUS ([4]; GUS^Stp vs E. coli GUS, 37° C. (FIG. 8)): approximately the same as E. coli GUS
Vmax ([4]; Staph GUS, substrate pNPG, 37° C.): 80 nmol/min/µg

O=C(O)[C@H]1O[C@@H](Oc2c[nH]c3ccc(Br)c(Cl)c23)[C@H](O)[C@@H](O)[C@@H]1O [X-GlcA, 5-bromo-4-chloro-3-indolyl β-D-glucuronide]
toxic effects / reduced growth of plants (rice seeds): No toxic effects
